Assays:
Experiment in all cases: OR transcript level by RT-qPCR after in vivo odorant exposure
Set-up in all cases: species or system mouse; key: The transcript downregulation of 21 out of the 26 olfactory receptor candidates obtained by RNAseq was confirmed by qPCR; false RNAseq positive candidates, namely OR candidates for which in fact mRNA was not downregulated following acetophenone exposure
Conditions in all cases: 5% acetophenone exposure
[1] = tested on: olfr1054
Procedure: (§1) In vivo exposure to odorant: Starting 48 h before experiments, mice were habituated to pure DMSO on a cotton ball. 200 μl were pipetted directly onto the cotton and placed in the cage, replacing any cotton that was already in the cage for nest-making purposes.
(§2) On the day of the experiment, mice receiving odorants were transferred to a different room, where they were exposed to a cotton ball on which 200 μl of odorant diluted in pure DMSO were deposited. Exposures started in the morning between 8 and 10 am (that is two hours after lights were on) and mice were killed and dissected between 1 and 3 pm. […] If a number of different odorants were tested in the same experiment, a different overpressurized room would always be used for each odorant to avoid odor cross-contamination.
(§3) After odorant exposure, mice were killed by cervical dislocation and immediately decapitated. The main olfactory epithelia (MOE), were harvested in their entirety and transferred to a tube containing 600 μl of lysis buffer and β-mercaptoethanol (RNAeasy kit, Qiagen, following the manufacturer protocol) and a 0.5 cm diameter steel ball, and then put on ice. Samples were then homogenized using a FastPrep®-24 instrument (MP Biomedicals) at 6 m/s for 30 s and left on ice. RNA extraction was performed on all samples in parallel using the Qiagen RNeasy Mini® kit following the manufacturer's instructions. Two DNase treatments were performed on all samples: first using the Qiagen RNase-Free DNase Set® and then using the Life Technologies Ambion DNase I® kit. RNA samples were then aliquoted and stored at −80° C.
(§4) RNA concentrations were determined using an Amersham Ultrospec® 3100 Pro spectrophotometer, and RNA quality was evaluated with an Agilent Technologies 2100 Bioanalyzer®. Each reverse transcription was performed with 0.5 μg RNA using the Takara Primescript® kit, in a final volume of 10 μl. Primers for reverse transcription were equal mixtures of poly-T nucleotides and random hexamers. Negative controls (omitting the reverse transcriptase enzyme) were performed for each sample. 1/14th of the cDNA preparation was used for each triplicated qPCR reaction.
(§5) qPCR Ct values were analyzed using an in-house developed Microsoft Excel® macro file. Triplicate values were compared and outliers (values with a difference higher than 0.5 Ct to their nearest neighbor) were discarded. The number of conditions with an outlying value was always less than 10% of the total number of conditions. Ct values were converted to quantities relative to the maximum for each given gene. Selected reference genes were then analyzed for variance using the geNorm algorithm. All values were normalized with the olfactory tissue-specific genes Omp and Adcy3. β-Actin was used as a non-tissue-specific reference gene to control for differences in dissection between samples.
(§6) Mice (n=6) were exposed to 5% acetophenone or to a “neutral” control condition for 5 hours. An olfactory cDNA library corresponding to each animal was deep sequenced and the ratios of odorant receptor mRNA concentrations relative to controls were plotted (FIG. 3). […] Based on transcriptional downregulation levels observed by RNAseq following acetophenone exposure, a list of 26 candidate responsive ORs was determined (FIG. 3), that reached 74% decrease (Olfr145) or even over 80% (Olfr169) relative to controls. […] The transcript downregulation of 21 out of the 26 olfactory receptor candidates obtained by RNAseq was confirmed by qPCR.

[2] = tested on: olfr1135
Procedure: as §1, §2, §3, §4, §5, §6

[3] = tested on: olfr1350
Procedure: as §1, §2, §3, §4, §5, §6

[4] = tested on: olfr229
Procedure: as §1, §2, §3, §4, §5, §6

[5] = tested on: olfr30
Procedure: as §1, §2, §3, §4, §5, §6

[6] = tested on: olfr378
Procedure: as §1, §2, §3, §4, §5, §6

[7] = tested on: olfr47
Procedure: as §1, §2, §3, §4, §5, §6

[8] = tested on: olfr745
Procedure: as §1, §2, §3, §4, §5, §6

[9] = tested on: olfr922
Procedure: as §1, §2, §3, §4, §5, §6

CC(=O)c1ccccc1 [acetophenone]
olfr1054 candidate OR (RNAseq) confirmed by qPCR [1]: y | olfr1135 candidate OR (RNAseq) confirmed by qPCR [2]: n | olfr1350 candidate OR (RNAseq) confirmed by qPCR [3]: n | olfr229 candidate OR (RNAseq) confirmed by qPCR [4]: y | olfr30 candidate OR (RNAseq) confirmed by qPCR [5]: y | olfr378 candidate OR (RNAseq) confirmed by qPCR [6]: n | olfr47 candidate OR (RNAseq) confirmed by qPCR [7]: y | olfr745 candidate OR (RNAseq) confirmed by qPCR [8]: y | olfr922 candidate OR (RNAseq) confirmed by qPCR [9]: y

From patent US10473645B2, “Methods for identifying a receptor for a ligand and uses thereof” (UNIVERSITE DE GENEVE, priority 2014, dated 2019)
